Experimental data taken from ChEMBL document CHEMBL1201862, “PubChem BioAssay data set” (2004).
Calls of active or inactive are those of the source.

What was measured:
[1] = biological target: X-box-binding protein 1 (Homo sapiens, UniProt P17861); assay type: functional, Cricetulus griseus;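 note: confirmatory dose-response counter-screen serving a CHOP assay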
[2] = biological target: Luciferin 4-monooxygenase (Photinus pyralis, UniProt P08659); experiment: Counter Screen for Luciferase-based Assay Positives. [Related pubchem assays: 620, 618, 411 ]
Chain of Luciferin 4-monooxygenase (P08659 whole entry): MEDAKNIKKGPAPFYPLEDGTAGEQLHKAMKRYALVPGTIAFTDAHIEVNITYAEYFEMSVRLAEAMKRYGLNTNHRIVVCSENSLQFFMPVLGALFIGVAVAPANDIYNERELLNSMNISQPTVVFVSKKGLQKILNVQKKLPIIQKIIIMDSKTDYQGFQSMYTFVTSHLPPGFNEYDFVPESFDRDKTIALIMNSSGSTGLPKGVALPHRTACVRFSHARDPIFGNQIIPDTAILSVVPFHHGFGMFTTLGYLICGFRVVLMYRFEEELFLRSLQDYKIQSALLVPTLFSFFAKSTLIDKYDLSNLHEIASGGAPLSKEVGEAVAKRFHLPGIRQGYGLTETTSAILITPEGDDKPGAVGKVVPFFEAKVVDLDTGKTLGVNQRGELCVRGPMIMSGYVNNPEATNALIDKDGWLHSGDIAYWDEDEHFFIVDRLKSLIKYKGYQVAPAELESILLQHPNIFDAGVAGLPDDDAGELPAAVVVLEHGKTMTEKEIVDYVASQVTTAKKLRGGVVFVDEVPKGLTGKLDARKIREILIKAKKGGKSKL

[3] = Luminescence Cell-Based Dose Response HTS to Identify Inhibitors of 5'UTR Stem-Loop Driven Prion Protein mRNA Translation in H4 Neuroglioblastoma Cells. [Related pubchem assays: 1827 (Project Summary), 1813 (Primary HTS)]; assay type: functional
[4] = inhibitors of SNCA 5'UTR-driven reporter translation, confirmation, H4 neuroglioma cells, luminescence (AID 1988); assay type: functional, cell-based
[5] = system: HT-1080; experiment: cytotoxicity in HT1080 fibrosarcoma cells, cell-based, fluorescence readout (AID 620); assay type: functional; conditions: Homo sapiens
[6] = LGR2 antagonists, dose response, cell-based, HEK293, CRE-luciferase reporter, cherry pick, set 2 (AID 743343); assay type: functional;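 note: transfected cells were stimulated with diluted bursicon conditioned medium after compound addition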
[7] = MC4R antagonists, dose response, counter-screen for LGR2 antagonist project, cell-based, plate reader, cherry pick (AID 743444); assay type: functional;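 note: transfected HEK 293 cells stimulated with alpha-MSH peptide; potency of inhibitors of the alpha-MSH evoked signal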
[8] = cytotoxicity in HEK-293T cells, dose response, cytotoxicity control for BCR NF-kB inhibitor project, luminescence, B-cell screen hits (AID 489021); assay type: functional, cell-based;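 note: HEK-293T cells carrying an NF-kB luciferase reporter; cells exposed to compound for about 14 hours before viability readout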
[9] = A cytotoxicity screen of small molecule inhibitors of the PhoP region in Salmonella typhi identified in the primary screen. [Related pubchem assays: 1850, 1864, 1985 ]; assay type: functional
[10] = biological target: T1, RNA-binding protein pos-1 (Caenorhabditis elegans, UniProt G5EF15); experiment: inhibitors of POS-1/mex-3 RNA binding, dose response, biochemical, fluorescence polarization (AID 1964);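 note: purified POS-1 fused to maltose binding protein made in E. coli; potency of compounds blocking POS-1 binding to fluorescent RNA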
T1 sequence (G5EF15 whole entry): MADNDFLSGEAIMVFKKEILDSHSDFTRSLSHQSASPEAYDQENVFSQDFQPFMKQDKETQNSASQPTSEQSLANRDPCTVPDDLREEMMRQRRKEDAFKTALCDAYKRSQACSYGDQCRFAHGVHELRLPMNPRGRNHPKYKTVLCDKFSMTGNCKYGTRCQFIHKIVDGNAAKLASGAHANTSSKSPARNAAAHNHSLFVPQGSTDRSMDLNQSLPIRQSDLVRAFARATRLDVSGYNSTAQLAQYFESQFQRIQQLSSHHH

[11] = biological target: T2, Zinc finger protein mex-5 (Caenorhabditis elegans, UniProt Q9XUB2); experiment: MEX-5/TCR-2 RNA interaction inhibitors, dose response, biochemical, C. elegans, fluorescence polarization (AID 1960)
T2 sequence (Q9XUB2 whole entry): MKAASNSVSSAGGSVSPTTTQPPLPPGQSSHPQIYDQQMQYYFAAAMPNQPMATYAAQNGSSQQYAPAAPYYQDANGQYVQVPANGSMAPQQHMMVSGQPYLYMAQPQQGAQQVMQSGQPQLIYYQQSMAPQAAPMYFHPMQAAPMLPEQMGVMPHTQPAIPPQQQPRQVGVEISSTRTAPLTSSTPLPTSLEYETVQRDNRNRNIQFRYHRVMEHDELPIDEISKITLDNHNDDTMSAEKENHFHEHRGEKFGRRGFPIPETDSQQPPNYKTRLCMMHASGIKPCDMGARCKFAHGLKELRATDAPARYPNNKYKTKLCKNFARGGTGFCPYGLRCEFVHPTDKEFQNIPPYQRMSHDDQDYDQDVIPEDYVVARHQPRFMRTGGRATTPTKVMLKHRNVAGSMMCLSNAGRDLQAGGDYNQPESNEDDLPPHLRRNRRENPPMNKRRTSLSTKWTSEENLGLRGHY

[12] = system: Salmon testes DNA; experiment: DNA intercalators displacing acridine orange, dose response, artefact control for KSHV LANA DNA-binding inhibitor project, biochemical, fluorescence polarization, cherry-picked samples, set 2 (AID 504727); design: species or system Salmonidae
[13] = biological target: T3, ORF 73 (Human herpesvirus 8, UniProt O40947); experiment: inhibitors of C-LANA binding to LBS DNA, dose response, biochemical, fluorescence polarization, cherry-picked samples (AID 504725); design: species or system Human gammaherpesvirus 8;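 note: fluorescence polarization of a labeled DNA duplex reporting LANA DNA binding; potency is for inhibitors that block LANA binding to the DNA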
T3 sequence (O40947 whole entry): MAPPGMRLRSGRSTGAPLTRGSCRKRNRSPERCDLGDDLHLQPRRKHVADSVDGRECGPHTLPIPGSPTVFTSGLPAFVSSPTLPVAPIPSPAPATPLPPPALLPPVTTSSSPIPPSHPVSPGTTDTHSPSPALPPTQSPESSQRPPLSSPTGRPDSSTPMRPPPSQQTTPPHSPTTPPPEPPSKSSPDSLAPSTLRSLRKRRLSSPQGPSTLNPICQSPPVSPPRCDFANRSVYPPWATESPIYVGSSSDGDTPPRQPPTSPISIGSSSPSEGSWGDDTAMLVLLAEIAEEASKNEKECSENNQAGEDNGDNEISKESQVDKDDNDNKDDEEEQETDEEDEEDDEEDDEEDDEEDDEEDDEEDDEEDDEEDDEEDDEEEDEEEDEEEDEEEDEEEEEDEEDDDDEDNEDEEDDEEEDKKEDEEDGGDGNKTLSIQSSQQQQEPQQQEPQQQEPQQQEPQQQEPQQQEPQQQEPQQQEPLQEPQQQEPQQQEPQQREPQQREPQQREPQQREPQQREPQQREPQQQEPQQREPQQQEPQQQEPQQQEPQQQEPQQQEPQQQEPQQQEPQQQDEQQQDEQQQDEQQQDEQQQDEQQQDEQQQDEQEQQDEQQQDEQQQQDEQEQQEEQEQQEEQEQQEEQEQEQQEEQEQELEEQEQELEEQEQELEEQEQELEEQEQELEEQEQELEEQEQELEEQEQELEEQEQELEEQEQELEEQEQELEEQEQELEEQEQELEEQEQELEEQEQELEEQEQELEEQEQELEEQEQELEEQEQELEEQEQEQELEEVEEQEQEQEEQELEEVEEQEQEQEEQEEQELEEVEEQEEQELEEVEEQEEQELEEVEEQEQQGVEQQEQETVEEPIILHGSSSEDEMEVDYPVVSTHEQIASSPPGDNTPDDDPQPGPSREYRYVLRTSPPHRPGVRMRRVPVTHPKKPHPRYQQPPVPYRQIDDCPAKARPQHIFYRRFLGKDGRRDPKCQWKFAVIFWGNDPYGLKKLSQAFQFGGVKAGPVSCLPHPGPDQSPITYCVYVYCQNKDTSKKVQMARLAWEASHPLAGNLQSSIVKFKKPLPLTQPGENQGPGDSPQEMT

[14] = system: HeLa; experiment: HeLa cell cytotoxicity, dose response, cytotoxicity control, 24 h, cherry-picked samples (AID 504726); assay type: functional, cell-based; conditions: Homo sapiens;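 note: potency for cytotoxicity as loss of luminescence signal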
[15] = biological target: Induced myeloid leukemia cell differentiation protein Mcl-1 (Homo sapiens, UniProt Q07820); assay type: functional
Chain of Induced myeloid leukemia cell differentiation protein Mcl-1 (Q07820 whole entry): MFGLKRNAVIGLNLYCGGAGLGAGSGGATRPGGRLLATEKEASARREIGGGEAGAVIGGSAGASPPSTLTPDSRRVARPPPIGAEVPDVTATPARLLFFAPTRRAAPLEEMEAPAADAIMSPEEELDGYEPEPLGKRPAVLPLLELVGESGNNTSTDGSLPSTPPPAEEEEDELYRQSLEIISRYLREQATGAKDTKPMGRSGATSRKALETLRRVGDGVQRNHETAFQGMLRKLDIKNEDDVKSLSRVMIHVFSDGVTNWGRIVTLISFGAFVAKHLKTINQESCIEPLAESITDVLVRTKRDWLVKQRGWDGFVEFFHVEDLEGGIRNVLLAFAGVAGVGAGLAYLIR

[16] = biological target: Cystic fibrosis transmembrane conductance regulator/Golgi-associated PDZ and coiled-coil motif-containing protein (Homo sapiens, UniProt P13569+Q9HD26); experiment: CAL PDZ peptide-binding inhibitors, dose response, biochemical, fluorescence polarization, Cerulean-tagged CAL PDZ, cherry-picks (AID 504773)
Chain of Cystic fibrosis transmembrane conductance regulator/Golgi-associated PDZ and coiled-coil motif-containing protein (P13569 whole entry, other chains not shown): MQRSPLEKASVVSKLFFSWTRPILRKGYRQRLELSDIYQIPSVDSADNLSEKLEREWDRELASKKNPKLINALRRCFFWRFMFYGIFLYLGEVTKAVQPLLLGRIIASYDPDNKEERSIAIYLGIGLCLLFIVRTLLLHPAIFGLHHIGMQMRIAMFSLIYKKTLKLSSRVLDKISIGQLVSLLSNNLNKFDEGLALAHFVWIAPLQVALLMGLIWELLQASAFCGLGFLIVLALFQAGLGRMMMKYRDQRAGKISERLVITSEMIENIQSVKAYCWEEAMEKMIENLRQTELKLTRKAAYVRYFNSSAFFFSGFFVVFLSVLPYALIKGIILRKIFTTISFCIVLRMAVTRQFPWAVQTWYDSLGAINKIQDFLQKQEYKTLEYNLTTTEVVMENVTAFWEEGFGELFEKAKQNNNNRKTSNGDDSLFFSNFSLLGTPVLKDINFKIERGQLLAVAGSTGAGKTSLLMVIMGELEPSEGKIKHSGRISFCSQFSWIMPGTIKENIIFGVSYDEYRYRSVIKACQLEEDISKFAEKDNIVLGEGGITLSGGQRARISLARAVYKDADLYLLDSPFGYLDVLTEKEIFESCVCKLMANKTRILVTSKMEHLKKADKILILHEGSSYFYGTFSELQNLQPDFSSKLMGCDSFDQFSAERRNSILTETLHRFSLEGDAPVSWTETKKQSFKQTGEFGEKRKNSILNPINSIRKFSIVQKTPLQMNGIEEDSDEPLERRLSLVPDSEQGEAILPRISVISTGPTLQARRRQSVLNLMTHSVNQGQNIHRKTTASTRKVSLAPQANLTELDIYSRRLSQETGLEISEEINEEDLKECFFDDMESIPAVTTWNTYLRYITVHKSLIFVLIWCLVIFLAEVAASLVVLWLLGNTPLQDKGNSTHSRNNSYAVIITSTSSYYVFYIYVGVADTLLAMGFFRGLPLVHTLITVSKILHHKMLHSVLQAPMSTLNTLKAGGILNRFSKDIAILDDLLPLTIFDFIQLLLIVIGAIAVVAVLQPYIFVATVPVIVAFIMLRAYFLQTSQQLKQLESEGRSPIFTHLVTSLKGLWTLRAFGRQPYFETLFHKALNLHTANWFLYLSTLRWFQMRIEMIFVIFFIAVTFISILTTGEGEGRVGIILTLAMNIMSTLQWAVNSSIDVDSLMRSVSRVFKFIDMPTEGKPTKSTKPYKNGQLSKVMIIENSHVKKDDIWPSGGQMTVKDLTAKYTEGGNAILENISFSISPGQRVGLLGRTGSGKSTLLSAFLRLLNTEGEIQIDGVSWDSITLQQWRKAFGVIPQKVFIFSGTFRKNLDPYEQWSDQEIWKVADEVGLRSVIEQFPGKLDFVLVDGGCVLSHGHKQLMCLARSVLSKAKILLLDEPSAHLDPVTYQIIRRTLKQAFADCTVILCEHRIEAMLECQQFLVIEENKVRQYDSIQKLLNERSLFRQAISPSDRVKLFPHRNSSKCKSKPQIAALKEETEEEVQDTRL

[17] = biological target: Beta-galactosidase (Escherichia coli, UniProt Q8VNN2); experiment: beta-galactosidase enzyme inhibitors and activators, dose response, artefact control for CCR6 antagonist project, biochemical, E. coli enzyme, set 3 (AID 504712); assay type: functional
Chain of Beta-galactosidase (Q8VNN2 whole entry): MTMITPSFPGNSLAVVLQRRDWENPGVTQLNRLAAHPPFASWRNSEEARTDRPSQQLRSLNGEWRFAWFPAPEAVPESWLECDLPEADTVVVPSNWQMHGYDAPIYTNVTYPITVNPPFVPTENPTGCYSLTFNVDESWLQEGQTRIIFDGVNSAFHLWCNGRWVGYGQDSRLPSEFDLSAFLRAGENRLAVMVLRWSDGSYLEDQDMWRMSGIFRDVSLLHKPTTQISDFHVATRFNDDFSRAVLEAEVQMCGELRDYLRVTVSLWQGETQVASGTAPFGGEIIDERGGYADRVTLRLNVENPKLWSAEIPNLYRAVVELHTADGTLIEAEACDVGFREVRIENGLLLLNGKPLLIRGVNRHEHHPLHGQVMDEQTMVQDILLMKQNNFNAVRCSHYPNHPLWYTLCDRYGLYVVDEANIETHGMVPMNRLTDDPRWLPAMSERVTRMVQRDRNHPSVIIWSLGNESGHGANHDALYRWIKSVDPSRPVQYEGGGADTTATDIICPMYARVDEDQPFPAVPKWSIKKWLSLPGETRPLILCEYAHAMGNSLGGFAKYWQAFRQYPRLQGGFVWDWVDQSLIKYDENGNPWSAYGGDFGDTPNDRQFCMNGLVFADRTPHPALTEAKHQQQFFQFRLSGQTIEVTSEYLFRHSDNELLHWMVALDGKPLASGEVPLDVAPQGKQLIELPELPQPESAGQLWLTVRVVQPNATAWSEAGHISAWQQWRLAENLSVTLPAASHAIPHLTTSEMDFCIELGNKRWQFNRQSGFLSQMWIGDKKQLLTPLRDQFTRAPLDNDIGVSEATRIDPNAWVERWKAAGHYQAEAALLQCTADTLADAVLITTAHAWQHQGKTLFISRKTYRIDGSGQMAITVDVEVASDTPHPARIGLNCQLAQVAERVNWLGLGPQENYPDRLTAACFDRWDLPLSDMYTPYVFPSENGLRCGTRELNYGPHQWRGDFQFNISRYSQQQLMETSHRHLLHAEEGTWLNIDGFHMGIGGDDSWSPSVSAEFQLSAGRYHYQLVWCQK

[18] = biological target: Eukaryotic translation initiation factor 4E (Mus musculus, UniProt P63073); experiment: eIF4E–eIF4G protein interaction inhibitors, dose response, biochemical, TR-FRET (AID 855); assay type: functional;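 note: potency for disrupting eIF4E binding to eIF4GI seen as loss of FRET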
Chain of Eukaryotic translation initiation factor 4E (P63073 whole entry): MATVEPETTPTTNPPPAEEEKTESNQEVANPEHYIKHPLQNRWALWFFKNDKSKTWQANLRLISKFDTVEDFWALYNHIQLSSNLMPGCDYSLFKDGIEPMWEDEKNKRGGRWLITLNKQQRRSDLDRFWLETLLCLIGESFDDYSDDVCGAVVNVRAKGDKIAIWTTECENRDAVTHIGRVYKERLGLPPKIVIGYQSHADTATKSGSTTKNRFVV

[19] = biological target: T4, Hexokinase HKDC1 (Homo sapiens, UniProt Q2TB90); experiment: HKDC1 hexokinase inhibitors, dose response, biochemical, W721R variant (AID 504729); assay type: functional
T4 sequence (Q2TB90 whole entry): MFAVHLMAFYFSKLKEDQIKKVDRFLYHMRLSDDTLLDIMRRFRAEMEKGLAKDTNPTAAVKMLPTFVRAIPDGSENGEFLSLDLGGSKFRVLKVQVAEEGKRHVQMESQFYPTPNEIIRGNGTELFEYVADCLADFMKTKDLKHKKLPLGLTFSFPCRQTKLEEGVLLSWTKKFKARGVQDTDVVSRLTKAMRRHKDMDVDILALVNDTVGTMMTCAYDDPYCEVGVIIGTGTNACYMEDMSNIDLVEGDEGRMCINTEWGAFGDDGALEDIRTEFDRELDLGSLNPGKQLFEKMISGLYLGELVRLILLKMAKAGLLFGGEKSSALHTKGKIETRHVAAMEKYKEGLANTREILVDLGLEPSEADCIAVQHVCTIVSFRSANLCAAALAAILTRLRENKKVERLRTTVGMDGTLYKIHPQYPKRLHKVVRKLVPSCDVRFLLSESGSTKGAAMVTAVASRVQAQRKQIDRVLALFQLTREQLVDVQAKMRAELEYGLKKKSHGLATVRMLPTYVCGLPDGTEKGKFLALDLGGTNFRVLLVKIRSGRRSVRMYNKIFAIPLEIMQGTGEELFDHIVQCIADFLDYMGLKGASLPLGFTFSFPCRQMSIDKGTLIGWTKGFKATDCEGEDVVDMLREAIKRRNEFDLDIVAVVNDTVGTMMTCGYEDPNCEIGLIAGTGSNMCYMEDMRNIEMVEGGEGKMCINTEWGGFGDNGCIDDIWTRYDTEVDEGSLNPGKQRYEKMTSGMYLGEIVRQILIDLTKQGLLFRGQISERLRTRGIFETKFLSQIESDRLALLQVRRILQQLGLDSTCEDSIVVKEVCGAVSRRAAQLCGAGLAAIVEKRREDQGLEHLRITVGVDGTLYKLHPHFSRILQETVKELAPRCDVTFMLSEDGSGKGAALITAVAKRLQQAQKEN

[20] = system: INS1; experiment: beta cell apoptosis inhibitors, cytokine rescue, dose response, luminescence, retest (AID 449756); assay type: functional, cell-based; conditions: Rattus norvegicus;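 note: cell death triggered by IL-1 beta plus TNF-alpha plus IFN-gamma mixture; protective hits raise ATP signal compared with cytokine alone wells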

Chain of X-box-binding protein 1 (P17861 whole entry): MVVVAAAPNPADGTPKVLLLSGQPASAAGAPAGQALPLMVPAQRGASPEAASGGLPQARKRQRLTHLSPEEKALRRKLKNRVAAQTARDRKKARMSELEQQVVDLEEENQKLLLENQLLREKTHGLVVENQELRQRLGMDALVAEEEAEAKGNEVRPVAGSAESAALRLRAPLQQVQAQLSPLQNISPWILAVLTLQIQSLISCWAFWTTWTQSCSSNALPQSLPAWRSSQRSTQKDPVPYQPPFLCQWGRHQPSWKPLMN

## COCCn1/c(=N/C(=O)/C=C/c2cccs2)sc2cc(NC(C)=O)ccc21
[1]
  Absolute IC50 (XBP1): 10 µM

## O=C(Nc1nc2c(s1)CCCC2)C1COc2ccccc2O1 (stereo not given)
[2]
  EC50: < 0.2 µM (active)
[3]
  EC50: 6.51 µM (active)
[4]
  EC50: 5.78 µM (active)
[5]
  EC50: > 50 µM (not active)
[6]
  AC50: 6.29 µM (active)
[7]
  AC50: 12.1 µM (active)

## CCCCCOc1ccc(NC(=O)C(=O)NCCCn2ccnc2)cc1
[8]
  IC50: > 80 µM (inactive)

## O=C(Nc1ccc(Cl)cc1)c1cccs1
[9]
  EC50: > 50 µM (active)

## CCc1cc[n+](-c2[n-]c(=O)sc2C=O)cc1
[10]
  EC50: 16.7 µM (active)
[11]
  EC50: 11.8 µM (active)
[12]
  AC50: 141 µM (active)
[13]
  AC50: 73.5 µM (active)

## CCCN(CCC)C(=O)C1c2ccccc2Oc2ccccc21
[14]
  AC50: 81.4 µM (active)

## CCc1ccc(S(=O)(=O)/N=C2/C=C(Sc3nc[nH]n3)C(=O)c3ccccc32)cc1
[15]
  IC50: 5.9 µM (active)
[16]
  AC50: 23.1 µM (active)
[17]
  IC50: > 66.6 µM (inactive)
[18]
  IC50: > 64 µM (inactive)
[19]
  IC50: 2.46 µM (active)
[20]
  AC50: 7.93 µM (active)
